Test results from publication PMC2873968, “Novel protein kinase D inhibitors cause potent arrest in prostate cancer cell growth and motility” (BMC Chemical Biology, 2010).

Legend:
CAMK4 = CAMK4 (Homo sapiens, UniProt Q16566); test: Kinase profiling, single-dose in vitro kinase assay (Caliper Life Sciences); conditions: read-out: Average % Inhibition CAMK4
PKA = PKA (Homo sapiens, UniProt P17612); test: as above; conditions: read-out: Average % Inhibition PKA
MARK1 = MARK1 (Homo sapiens, UniProt Q9P0L2); test: as above; conditions: read-out: Average % Inhibition MARK1
PKCγ = PKCγ (Homo sapiens, UniProt P05129); test: as above; conditions: read-out: Average % Inhibition PKCγ
PLK1 = system: PLK1; set-up: method as in PMID 18829454; conditions: previously reported; cited from earlier work
RSK1 = RSK1 (Homo sapiens, UniProt Q15418); test: Kinase profiling, single-dose in vitro kinase assay (Caliper Life Sciences); conditions: read-out: Average % Inhibition RSK1
MET = MET (Homo sapiens, UniProt P08581); test: as above; conditions: read-out: Average % Inhibition MET
FLT3 = FLT3 (Homo sapiens, UniProt P36888); test: as above; conditions: read-out: Average % Inhibition FLT3
PC3 cells = test: Cyclin D1 and cyclin D3 levels (Western blot); type: cell-based
PKCζ = PKCζ (Homo sapiens, UniProt Q05513); test: Kinase profiling, single-dose in vitro kinase assay (Caliper Life Sciences); conditions: read-out: Average % Inhibition PKCζ
PKCθ = PKCθ (Homo sapiens, UniProt Q04759); test: as above; conditions: read-out: Average % Inhibition PKCθ
SGK1 = SGK1 (Homo sapiens, UniProt O00141); test: as above; conditions: read-out: Average % Inhibition SGK1
PKD1 = target: T1, PKD1 (Homo sapiens, UniProt Q15139); test: Inhibition of PMA-induced endogenous PKD1 activation in LNCaP cells (Western blot); type: cell-based; set-up: endogenous in cells; host or cells: LNCaP; conditions: 45 min pretreatment, 100 nM PMA 20 min, densitometry of Western blots, mean ± S.E.M., read-out: Cellular IC50, inhibition of PKD1 autophosphorylation at S916
T1 sequence (Q15139 1-912): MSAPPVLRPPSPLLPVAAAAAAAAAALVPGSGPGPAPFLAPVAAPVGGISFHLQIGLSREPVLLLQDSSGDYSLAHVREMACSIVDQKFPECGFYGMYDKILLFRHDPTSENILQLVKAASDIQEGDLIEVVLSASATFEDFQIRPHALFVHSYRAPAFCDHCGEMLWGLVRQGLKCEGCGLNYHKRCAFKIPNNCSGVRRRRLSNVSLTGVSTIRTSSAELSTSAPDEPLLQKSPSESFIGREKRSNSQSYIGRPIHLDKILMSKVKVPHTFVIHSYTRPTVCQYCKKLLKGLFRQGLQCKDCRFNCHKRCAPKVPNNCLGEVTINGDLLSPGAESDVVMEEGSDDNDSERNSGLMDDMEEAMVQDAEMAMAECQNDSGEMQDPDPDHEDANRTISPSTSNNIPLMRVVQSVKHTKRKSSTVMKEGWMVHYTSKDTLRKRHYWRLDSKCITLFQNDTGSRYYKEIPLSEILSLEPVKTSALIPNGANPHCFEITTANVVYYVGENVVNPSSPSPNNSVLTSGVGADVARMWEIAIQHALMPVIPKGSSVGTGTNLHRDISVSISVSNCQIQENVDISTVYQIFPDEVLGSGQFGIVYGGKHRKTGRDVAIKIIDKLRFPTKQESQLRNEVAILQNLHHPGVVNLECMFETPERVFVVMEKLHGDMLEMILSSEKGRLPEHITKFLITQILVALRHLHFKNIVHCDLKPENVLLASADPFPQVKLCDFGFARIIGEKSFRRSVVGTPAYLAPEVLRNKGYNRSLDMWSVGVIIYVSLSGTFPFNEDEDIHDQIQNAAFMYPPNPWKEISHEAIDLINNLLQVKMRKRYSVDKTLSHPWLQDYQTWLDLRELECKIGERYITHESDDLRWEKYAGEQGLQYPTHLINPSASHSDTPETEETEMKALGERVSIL
Procedure: LNCaP cells were maintained as described previously. Western blot analysis was carried out as previously reported. Briefly, cells were lysed in lysis buffer containing 200 mM Tris-HCl, pH 7.4, 100 μM 4-(2-aminoethyl) benzenesulfonyl fluoride, 1 mM EGTA, and 1% Triton X-100. Protein concentration was determined using the BCA Protein Concentration Assay reagent kit (Pierce) and then equal amounts of protein were subjected to SDS-PAGE followed by electrotransfer to nitrocellulose membranes. Membranes were blocked with 5% nonfat milk in Tris-buffered saline and then probed with primary antibodies for either p-S916-PKD1 (Millipore), p-S742-PKCμ/PKD (Biosource), or GAPDH, followed by anti-mouse or anti-rabbit secondary antibodies conjugated to horseradish peroxidase (Bio-Rad). The enhanced chemiluminescence (ECL) Western blotting detection system (Amersham Biosciences) was used to facilitate detection of protein bands.
LNCaP cells were pretreated with indicated concentrations of the five analogs for 45 min, then stimulated with 100 nM PMA for 20 min. Cell lysates were immunoblotted for p-S916-PKD1 and p-S742-PKD1. GAPDH was blotted as a loading control. The experiment was repeated at least three times and representative blots are shown.

PKCδ = target: T2, PKCδ (Homo sapiens, UniProt Q05655); test: In vitro radiometric PKC kinase assay; type: biochemical
T2 construct: purchased Enzo Life Sciences
Procedure: The PKC in vitro kinase assays were performed as described previously.
To determine whether the novel analogs retained this specificity, we tested the compounds against their ability to inhibit PKCα, -βI, -δ, and CAMKIIα in in vitro radiometric kinase activity assays.
Inhibition of PKCα (A), PKCβI (B), PKCδ (C), or CAMKIIα (D) by each of the 5 analogs was determined at 100 nM, 1 μM, and 10 μM concentrations. […] Data are the mean ± S.E.M. of three independent experiments. Statistical significance was determined using the unpaired t-test. ns, not statistically significant; *, p < 0.05; **, p < 0.01; ***, p < 0.001.

T2 sequence (Q05655 whole entry): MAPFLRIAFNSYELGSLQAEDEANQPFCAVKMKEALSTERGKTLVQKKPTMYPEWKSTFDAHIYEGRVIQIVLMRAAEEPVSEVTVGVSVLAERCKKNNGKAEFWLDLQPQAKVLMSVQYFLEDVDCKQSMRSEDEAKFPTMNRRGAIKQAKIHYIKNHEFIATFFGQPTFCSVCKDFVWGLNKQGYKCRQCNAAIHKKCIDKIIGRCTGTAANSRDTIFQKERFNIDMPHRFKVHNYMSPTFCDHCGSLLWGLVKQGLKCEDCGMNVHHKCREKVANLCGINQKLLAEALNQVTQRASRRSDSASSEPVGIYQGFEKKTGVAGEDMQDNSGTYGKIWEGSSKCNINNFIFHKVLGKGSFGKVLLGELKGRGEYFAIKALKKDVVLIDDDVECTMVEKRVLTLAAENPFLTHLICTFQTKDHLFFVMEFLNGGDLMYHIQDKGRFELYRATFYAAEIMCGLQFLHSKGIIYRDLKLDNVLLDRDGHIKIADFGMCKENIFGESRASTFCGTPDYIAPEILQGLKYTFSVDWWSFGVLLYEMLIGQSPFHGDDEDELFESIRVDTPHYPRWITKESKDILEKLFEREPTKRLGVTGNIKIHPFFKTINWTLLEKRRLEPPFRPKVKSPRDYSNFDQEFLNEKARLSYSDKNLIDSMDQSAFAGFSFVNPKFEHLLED
PKCθ, sequence (Q04759 whole entry): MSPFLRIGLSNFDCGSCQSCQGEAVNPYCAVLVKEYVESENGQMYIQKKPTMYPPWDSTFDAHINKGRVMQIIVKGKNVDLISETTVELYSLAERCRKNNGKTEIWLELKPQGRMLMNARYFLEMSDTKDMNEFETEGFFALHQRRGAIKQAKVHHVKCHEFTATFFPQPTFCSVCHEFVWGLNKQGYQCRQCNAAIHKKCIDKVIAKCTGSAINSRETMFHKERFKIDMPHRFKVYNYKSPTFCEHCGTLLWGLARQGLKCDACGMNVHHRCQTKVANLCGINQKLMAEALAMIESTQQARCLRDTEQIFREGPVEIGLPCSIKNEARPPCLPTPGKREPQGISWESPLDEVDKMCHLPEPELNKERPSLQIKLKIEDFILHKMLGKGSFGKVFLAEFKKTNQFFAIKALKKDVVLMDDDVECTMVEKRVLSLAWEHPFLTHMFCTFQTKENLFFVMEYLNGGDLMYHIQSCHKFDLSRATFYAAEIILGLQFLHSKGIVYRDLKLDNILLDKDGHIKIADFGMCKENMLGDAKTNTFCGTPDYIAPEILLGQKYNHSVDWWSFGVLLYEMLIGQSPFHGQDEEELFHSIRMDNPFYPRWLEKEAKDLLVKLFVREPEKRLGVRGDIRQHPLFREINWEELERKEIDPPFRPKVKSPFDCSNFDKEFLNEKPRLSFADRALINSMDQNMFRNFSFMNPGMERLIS
FLT3, sequence (P36888 27-993): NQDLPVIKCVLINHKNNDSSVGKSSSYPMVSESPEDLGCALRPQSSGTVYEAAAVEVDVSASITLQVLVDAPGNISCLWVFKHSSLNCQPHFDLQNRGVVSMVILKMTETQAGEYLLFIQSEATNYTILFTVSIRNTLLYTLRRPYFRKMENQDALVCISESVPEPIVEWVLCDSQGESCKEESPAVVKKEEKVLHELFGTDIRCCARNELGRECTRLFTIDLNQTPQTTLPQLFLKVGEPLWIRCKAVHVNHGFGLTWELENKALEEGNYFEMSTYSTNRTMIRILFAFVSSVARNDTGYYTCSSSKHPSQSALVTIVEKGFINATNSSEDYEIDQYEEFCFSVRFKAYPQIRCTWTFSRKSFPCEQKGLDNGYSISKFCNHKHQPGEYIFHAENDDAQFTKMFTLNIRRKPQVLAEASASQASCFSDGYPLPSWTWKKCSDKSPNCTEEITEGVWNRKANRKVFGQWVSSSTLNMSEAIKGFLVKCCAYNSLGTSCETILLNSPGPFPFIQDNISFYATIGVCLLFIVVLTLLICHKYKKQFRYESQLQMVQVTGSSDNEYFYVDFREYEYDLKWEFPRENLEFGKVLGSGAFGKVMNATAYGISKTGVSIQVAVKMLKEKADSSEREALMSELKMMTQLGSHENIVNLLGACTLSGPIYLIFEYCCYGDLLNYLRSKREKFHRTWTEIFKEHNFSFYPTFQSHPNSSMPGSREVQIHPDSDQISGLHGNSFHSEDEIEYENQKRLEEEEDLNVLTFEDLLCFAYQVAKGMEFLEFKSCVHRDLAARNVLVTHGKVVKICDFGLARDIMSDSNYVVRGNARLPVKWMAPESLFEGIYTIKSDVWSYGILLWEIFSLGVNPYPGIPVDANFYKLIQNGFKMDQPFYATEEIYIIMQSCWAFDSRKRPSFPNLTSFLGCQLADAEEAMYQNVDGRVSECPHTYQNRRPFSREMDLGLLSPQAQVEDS
SGK1, sequence (O00141 whole entry): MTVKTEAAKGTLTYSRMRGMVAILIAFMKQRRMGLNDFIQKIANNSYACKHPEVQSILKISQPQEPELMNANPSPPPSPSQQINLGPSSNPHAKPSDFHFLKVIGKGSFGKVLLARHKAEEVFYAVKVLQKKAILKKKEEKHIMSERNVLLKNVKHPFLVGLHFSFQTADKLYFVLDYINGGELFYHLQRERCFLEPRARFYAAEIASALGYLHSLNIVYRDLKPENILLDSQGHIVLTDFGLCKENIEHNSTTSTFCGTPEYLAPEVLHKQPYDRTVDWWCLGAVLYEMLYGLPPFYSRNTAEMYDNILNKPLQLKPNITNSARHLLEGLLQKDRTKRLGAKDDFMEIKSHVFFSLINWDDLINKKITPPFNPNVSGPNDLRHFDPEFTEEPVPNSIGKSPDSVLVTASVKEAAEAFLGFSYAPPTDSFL
MET, sequence (P08581 25-1390): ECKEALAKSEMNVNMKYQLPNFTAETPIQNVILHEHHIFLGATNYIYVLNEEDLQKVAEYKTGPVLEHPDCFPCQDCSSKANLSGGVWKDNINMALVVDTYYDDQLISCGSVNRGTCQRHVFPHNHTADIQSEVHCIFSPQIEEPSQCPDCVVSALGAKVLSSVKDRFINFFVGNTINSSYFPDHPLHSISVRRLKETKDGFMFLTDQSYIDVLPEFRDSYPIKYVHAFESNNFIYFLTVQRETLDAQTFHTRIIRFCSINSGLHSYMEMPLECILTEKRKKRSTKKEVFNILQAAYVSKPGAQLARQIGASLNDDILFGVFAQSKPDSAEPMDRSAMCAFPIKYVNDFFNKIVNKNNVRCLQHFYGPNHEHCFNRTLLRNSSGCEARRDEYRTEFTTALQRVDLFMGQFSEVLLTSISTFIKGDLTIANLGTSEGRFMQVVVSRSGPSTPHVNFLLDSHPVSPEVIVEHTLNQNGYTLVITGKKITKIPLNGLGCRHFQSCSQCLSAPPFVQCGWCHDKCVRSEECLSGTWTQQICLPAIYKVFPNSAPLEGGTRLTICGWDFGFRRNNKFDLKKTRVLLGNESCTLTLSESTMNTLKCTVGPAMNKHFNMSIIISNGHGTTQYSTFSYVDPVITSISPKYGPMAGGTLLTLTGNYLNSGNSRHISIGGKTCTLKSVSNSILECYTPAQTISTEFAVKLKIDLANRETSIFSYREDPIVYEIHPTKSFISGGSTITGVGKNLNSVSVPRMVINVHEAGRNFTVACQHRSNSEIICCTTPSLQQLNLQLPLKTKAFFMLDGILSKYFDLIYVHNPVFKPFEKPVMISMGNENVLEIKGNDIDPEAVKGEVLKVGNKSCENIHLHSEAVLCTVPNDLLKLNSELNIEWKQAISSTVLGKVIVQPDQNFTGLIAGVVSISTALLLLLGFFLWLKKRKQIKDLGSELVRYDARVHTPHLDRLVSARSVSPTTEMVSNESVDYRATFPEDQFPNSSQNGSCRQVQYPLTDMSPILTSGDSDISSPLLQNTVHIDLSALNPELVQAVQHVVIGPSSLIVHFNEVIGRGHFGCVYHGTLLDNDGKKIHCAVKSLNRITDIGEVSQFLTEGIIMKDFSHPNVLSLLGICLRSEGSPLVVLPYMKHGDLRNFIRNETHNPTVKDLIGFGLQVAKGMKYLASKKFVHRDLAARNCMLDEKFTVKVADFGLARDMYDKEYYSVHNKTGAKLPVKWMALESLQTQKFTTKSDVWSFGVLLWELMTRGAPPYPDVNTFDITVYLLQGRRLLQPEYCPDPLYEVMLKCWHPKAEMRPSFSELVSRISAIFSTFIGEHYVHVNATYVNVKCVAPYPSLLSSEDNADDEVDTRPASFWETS
CAMK4, sequence (Q16566 whole entry): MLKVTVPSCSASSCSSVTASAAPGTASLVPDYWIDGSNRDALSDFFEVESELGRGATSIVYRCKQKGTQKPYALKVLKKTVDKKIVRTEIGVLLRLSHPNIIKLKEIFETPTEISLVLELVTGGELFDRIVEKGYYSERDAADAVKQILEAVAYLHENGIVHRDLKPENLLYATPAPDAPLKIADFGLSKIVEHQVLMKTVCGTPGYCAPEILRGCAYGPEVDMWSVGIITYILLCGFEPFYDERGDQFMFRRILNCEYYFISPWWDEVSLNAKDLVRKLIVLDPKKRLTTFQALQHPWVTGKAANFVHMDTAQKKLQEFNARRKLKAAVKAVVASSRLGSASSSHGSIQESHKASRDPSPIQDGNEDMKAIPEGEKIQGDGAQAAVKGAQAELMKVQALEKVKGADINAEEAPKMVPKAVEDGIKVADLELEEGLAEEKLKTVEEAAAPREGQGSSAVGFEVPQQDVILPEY

O=C1NCCCc2c1oc1ccc(O)cc21 [CID755673, 7-Hydroxy-2,3,4,5-tetrahydro-[1]benzoxolo[2,3-c]azepin-1-one]
inhibition at 10 µM (CAMK4): 17%
inhibition at 10 µM (PKA): 6%
inhibition at 10 µM (MARK1): 12%
inhibition at 10 µM (PKCγ): 30%
inhibition of PLK1 (PLK1): did not inhibit
inhibition at 10 µM (RSK1): 29%
inhibition at 10 µM (MET): 18%
inhibition at 10 µM (FLT3): 14%
cyclin D1 and D3 levels (PC3 cells; 48 hrs): induced cyclin D1 and D3 expression in a concentration-dependent manner
inhibition at 10 µM (PKCζ): -4%
inhibition at 10 µM (PKCθ): 32%
inhibition at 10 µM (SGK1): 9%

O=C1NCCSc2c1sc1ccc(O)cc21 [kb-NB142-70]
IC50 (PKD1): 2.2 ± 0.6 µM

COc1ccc2sc3c(c2c1)SCCNC3=O [kb-NB165-09]
IC50 (PKD1): 3.1 ± 0.5 µM

O=C1NCCSc2c1sc1ccc(O)c(I)c21 [kb-NB165-31]
inhibition of PKCδ (in words) (PKCδ): significant inhibitory activity
inhibition at 10 µM (PKCδ; 10 μM, read-out: inhibitory activity toward PKCδ): ~50%
IC50 (PKD1): 8.6 ± 2 µM

O=C1NCCCSc2c1sc1ccc(O)cc21 [kb-NB165-92]
cell death (PC3 cells; 10 μM): caused significant cell death
IC50 (PKD1): 2.6 ± 0.7 µM

COc1ccc2sc3c(c2c1)SCCCNC3=O [kb-NB184-02]
IC50 (PKD1): 18.6 ± 2 µM
